Test results published in paper PMC5529423, “ATP-dependent modulation of MgtE in Mg^2+ homeostasis” (Nature Communications, 2017).
One block for each molecule: values may come before it.

Tests used:
[1] = target: T1, TtMgtE (full-length MgtE) (Thermus thermophilus, UniProt Q5SMG8); assay: isothermal titration calorimetry; type: binding
T1 construct: full-length, expressed in E. coli C41 (DE3), Ni-NTA and gel filtration in detergent; homodimer; tag not described
T1 sequence (Q5SMG8 1-450): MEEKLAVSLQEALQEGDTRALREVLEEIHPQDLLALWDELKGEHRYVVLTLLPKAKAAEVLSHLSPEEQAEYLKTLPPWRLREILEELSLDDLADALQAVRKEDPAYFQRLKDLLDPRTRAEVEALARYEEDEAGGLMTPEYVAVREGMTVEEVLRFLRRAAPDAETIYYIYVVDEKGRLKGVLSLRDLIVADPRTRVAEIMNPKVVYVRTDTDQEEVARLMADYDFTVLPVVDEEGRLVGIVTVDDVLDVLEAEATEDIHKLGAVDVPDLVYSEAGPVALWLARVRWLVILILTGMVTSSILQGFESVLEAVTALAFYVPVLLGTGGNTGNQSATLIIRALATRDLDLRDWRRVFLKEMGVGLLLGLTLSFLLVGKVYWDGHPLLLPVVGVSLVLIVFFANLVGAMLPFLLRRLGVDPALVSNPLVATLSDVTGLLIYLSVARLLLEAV

[2] = target: T2, TtMgtE (full-length MgtE) (Thermus thermophilus, UniProt Q5SMG8, R187E); assay: isothermal titration calorimetry; type: binding; settings: 20 °C, no added Mg2+, NTM detergent, ligand solution pH 6.5; CBS domain site
T2 construct: full-length, expressed in E. coli C41 (DE3), Ni-NTA and gel filtration in detergent; homodimer; tag not described
T2 sequence (Q5SMG8 whole entry R187E, the tested form may be a part): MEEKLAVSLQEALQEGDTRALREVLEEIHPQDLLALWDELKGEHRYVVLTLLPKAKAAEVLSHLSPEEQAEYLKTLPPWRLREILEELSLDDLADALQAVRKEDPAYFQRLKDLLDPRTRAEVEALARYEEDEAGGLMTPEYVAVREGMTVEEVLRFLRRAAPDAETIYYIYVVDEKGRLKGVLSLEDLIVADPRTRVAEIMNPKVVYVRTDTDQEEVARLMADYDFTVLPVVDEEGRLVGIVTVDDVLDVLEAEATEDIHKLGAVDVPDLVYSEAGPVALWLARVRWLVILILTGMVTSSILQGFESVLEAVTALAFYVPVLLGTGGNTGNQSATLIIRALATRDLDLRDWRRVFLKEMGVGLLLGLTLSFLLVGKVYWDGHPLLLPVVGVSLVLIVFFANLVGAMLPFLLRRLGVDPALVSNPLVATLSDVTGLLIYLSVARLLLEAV

[3] = target: the molecule itself; assay: crystal structure; full-length MgtE with ATP; vapor diffusion over 9% PEG 4000, 0.2 M MgCl2, 0.05 M MES pH 6.5; 3.6 Å
[4] = target: the molecule itself; assay: crystal structure; cytosolic domain (1-275) with ATP; vapor diffusion over 20-22% PEG 400, 0.2 M MgCl2, 0.1 M HEPES pH 7.4; 3.0 Å

- Kd [1]: 763 µM
Molecule: Nc1ncnc2c1ncn2[C@@H]1O[C@H](COP(=O)(O)OP(=O)(O)O)[C@@H](O)[C@H]1O [ADP]

- Kd [1]: 415 µM
Molecule: Nc1ncnc2c1ncn2[C@@H]1O[C@H](COP(=O)(O)OP(=O)(O)OP(=O)(O)O)[C@@H](O)[C@H]1O [ATP]
- isothermal titration calorimetry [2]: The injection of ATP into the R187E mutant solution still showed the weaker binding to ATP

B1: full-length Thermus thermophilus MgtE (natural protein, UniProt Q5SMG8 1-450, looked up)
chain: T1 sequence (Q5SMG8 1-450)
notes: MgtE Mg2+ channel of Thermus thermophilus, full length; crystallised with ATP and Mg2+; That MgtE is a homodimer is said in the introduction, of the earlier full-length structure; also called TtMgtE; wild type MgtE; source: E. coli C41 (DE3), solubilized with DDM, purified (Ni-NTA, Superdex 200 SEC)
- binding result [3]: binds

B2: cytosolic domain (1-275) of MgtE (domain or fragment, Thermus thermophilus, UniProt Q5SMG8 1-275, looked up)
chain: MEEKLAVSLQEALQEGDTRALREVLEEIHPQDLLALWDELKGEHRYVVLTLLPKAKAAEVLSHLSPEEQAEYLKTLPPWRLREILEELSLDDLADALQAVRKEDPAYFQRLKDLLDPRTRAEVEALARYEEDEAGGLMTPEYVAVREGMTVEEVLRFLRRAAPDAETIYYIYVVDEKGRLKGVLSLRDLIVADPRTRVAEIMNPKVVYVRTDTDQEEVARLMADYDFTVLPVVDEEGRLVGIVTVDDVLDVLEAEATEDIHKLGAVDVPDLVYSE
notes: MgtE Mg2+ channel of Thermus thermophilus, cytosolic domain (N domain and tandem CBS domains), residues 1-275; crystallised with ATP and Mg2+; also called MgtE cytosolic domain; source: E. coli C41 (DE3), purified
- binding result [4]: binds
